Test: xn = mol fraction of the nth substance listed
Conditions: Liquid, Vibrating tube method

CC(C)OC(C)C [diisopropyl ether] + CC(C)O
mass density [kg/m3]
Conditions | x2 = 0.1503 | x2 = 0.2979 | x2 = 0.4228 | x2 = 0.5 | x2 = 0.6737 | x2 = 0.8483
298.15 K, 100 kPa | 725.5 | 732.6 | 739.4 | 743.7 | 754.9 | 768
298.15 K, 1000 kPa | 726.6 | 733.6 | 740.5 | 744.7 | 755.8 | 768.9
298.15 K, 5000 kPa | 731.3 | 738.2 | 744.8 | 749 | 759.9 | 772.6
298.15 K, 10000 kPa | 736.8 | 743.6 | 749.9 | 754 | 764.7 | 777.1
298.15 K, 15000 kPa | 742.1 | 748.6 | 754.6 | 758.8 | 769.1 | 781.3
298.15 K, 20000 kPa | 746.8 | 753.2 | 759.2 | 763.2 | 773.4 | 785.2
298.15 K, 25000 kPa | 751.4 | 757.6 | 763.5 | 767.5 | 777.4 | 789
298.15 K, 30000 kPa | 755.7 | 761.9 | 767.6 | 771.5 | 781.2 | 792.6
298.15 K, 35000 kPa | 759.7 | 765.8 | 771.5 | 775.2 | 784.8 | 796
298.15 K, 40000 kPa | 763.6 | 769.6 | 775.2 | 778.9 | 788.3 | 799.3
298.15 K, 45000 kPa | 767.4 | 773.2 | 778.8 | 782.4 | 791.7 | 802.6
298.15 K, 50000 kPa | 770.9 | 776.7 | 782.2 | 785.8 | 794.9 | 805.6
298.15 K, 55000 kPa | 774.4 | 780.1 | 785.5 | 789 | 798.1 | 808.6
298.15 K, 60000 kPa | 777.7 | 783.3 | 788.7 | 792.1 | 801.1 | 811.5
298.15 K, 65000 kPa | 780.9 | 786.5 | 791.8 | 795.2 | 804 | 814.3
298.15 K, 70000 kPa | 784 | 789.5 | 794.8 | 798.2 | 806.8 | 817.1
298.15 K, 80000 kPa | 789.9 | 795.3 | 800.5 | 803.8 | 812.3 | 822.3
298.15 K, 90000 kPa | 795.6 | 800.8 | 805.9 | 809.1 | 817.5 | 827.3
298.15 K, 100000 kPa | 800.8 | 806 | 810.9 | 814.2 | 822.4 | 832
298.15 K, 110000 kPa | 805.8 | 811 | 815.8 | 818.9 | 827.1 | 836.6
298.15 K, 120000 kPa | 810.5 | 815.6 | 820.4 | 823.5 | 831.5 | 840.8
298.15 K, 130000 kPa | 815.1 | 820.1 | 824.8 | 827.9 | 835.7 | 844.9
298.15 K, 140000 kPa | 819.5 | 824.4 | 829 | 832.1 | 839.8 | 848.9
313.15 K, 100 kPa | 709.6 | 716.9 | 724 | 728.5 | 740.2 | 754
313.15 K, 1000 kPa | 710.8 | 718.1 | 725.1 | 729.6 | 741.3 | 755
313.15 K, 5000 kPa | 716.3 | 723.3 | 730 | 734.4 | 745.9 | 759.2
313.15 K, 10000 kPa | 722.4 | 729.3 | 735.7 | 740.1 | 751.1 | 764.1
313.15 K, 15000 kPa | 728.1 | 734.8 | 741 | 745.3 | 756 | 768.7
313.15 K, 20000 kPa | 733.4 | 739.9 | 746 | 750.2 | 760.7 | 773
313.15 K, 25000 kPa | 738.2 | 744.6 | 750.7 | 754.6 | 764.8 | 776.9
313.15 K, 30000 kPa | 743.1 | 749.4 | 755.1 | 759.2 | 769.2 | 781
313.15 K, 35000 kPa | 747.6 | 753.6 | 759.3 | 763.3 | 773.1 | 784.7
313.15 K, 40000 kPa | 751.7 | 757.7 | 763.4 | 767.2 | 776.8 | 788.2
313.15 K, 45000 kPa | 755.7 | 761.6 | 767.2 | 770.9 | 780.4 | 791.7
313.15 K, 50000 kPa | 759.5 | 765.4 | 770.9 | 774.5 | 783.9 | 794.9
313.15 K, 55000 kPa | 763.3 | 769 | 774.4 | 778.1 | 787.3 | 798.1
313.15 K, 60000 kPa | 766.8 | 772.5 | 777.8 | 781.4 | 790.5 | 801.2
313.15 K, 65000 kPa | 770.2 | 775.8 | 781.1 | 784.7 | 793.7 | 804.2
313.15 K, 70000 kPa | 773.5 | 779 | 784.3 | 787.7 | 796.6 | 807
313.15 K, 80000 kPa | 779.6 | 785.1 | 790.3 | 793.6 | 802.3 | 812.5
313.15 K, 90000 kPa | 785.6 | 790.9 | 796 | 799.3 | 807.8 | 817.8
313.15 K, 100000 kPa | 791.2 | 796.3 | 801.3 | 804.5 | 812.9 | 822.7
313.15 K, 110000 kPa | 796.4 | 801.5 | 806.4 | 809.6 | 817.9 | 827.5
313.15 K, 120000 kPa | 801.3 | 806.4 | 811.2 | 814.4 | 822.4 | 832
313.15 K, 130000 kPa | 806.2 | 811.2 | 815.8 | 819 | 826.9 | 836.3
313.15 K, 140000 kPa | 810.9 | 815.8 | 820.2 | 823.5 | 831.3 | 840.6
333.15 K, 100 kPa | 687.4 | 694.9 | 702.4 | 707 | 719.4 | 734.1
333.15 K, 1000 kPa | 689 | 696.4 | 703.7 | 708.4 | 720.7 | 735.3
333.15 K, 5000 kPa | 695.4 | 702.6 | 709.5 | 714.2 | 726.1 | 740.2
333.15 K, 10000 kPa | 702.7 | 709.6 | 716.1 | 720.7 | 732.2 | 745.8
333.15 K, 15000 kPa | 709.3 | 716 | 722.3 | 726.8 | 737.9 | 751.1
333.15 K, 20000 kPa | 715.3 | 721.8 | 728 | 732.3 | 743.1 | 755.9
333.15 K, 25000 kPa | 720.9 | 727.3 | 733.3 | 737.5 | 748 | 760.5
333.15 K, 30000 kPa | 726.2 | 732.4 | 738.3 | 742.4 | 752.6 | 764.9
333.15 K, 35000 kPa | 731.1 | 737.2 | 743 | 747 | 757 | 769
333.15 K, 40000 kPa | 735.8 | 741.7 | 747.4 | 751.4 | 761.2 | 772.9
333.15 K, 45000 kPa | 740.2 | 746 | 751.7 | 755.4 | 765.1 | 776.6
333.15 K, 50000 kPa | 744.4 | 750.2 | 755.7 | 759.4 | 768.9 | 780.3
333.15 K, 55000 kPa | 748.4 | 754.1 | 759.6 | 763.2 | 772.6 | 783.8
333.15 K, 60000 kPa | 752.2 | 757.8 | 763.3 | 766.8 | 776.1 | 787
333.15 K, 65000 kPa | 756 | 761.5 | 766.9 | 770.4 | 779.4 | 790.3
333.15 K, 70000 kPa | 759.5 | 765 | 770.3 | 773.7 | 782.7 | 793.5
333.15 K, 80000 kPa | 766.3 | 771.6 | 776.8 | 780.1 | 788.9 | 799.3
333.15 K, 90000 kPa | 772.6 | 777.8 | 782.9 | 786.2 | 794.8 | 805
333.15 K, 100000 kPa | 778.5 | 783.6 | 788.6 | 791.8 | 800.2 | 810.2
333.15 K, 110000 kPa | 784.1 | 789.2 | 794 | 797.3 | 805.5 | 815.3
333.15 K, 120000 kPa | 789.4 | 794.4 | 799.1 | 802.3 | 810.4 | 820.1
333.15 K, 130000 kPa | 794.5 | 799.4 | 804 | – | – | –

From the NIST ThermoML archive (doi:10.1016/j.fluid.2018.04.012)
